Measurements: US20230293517A1, “ANTAGONIST COMPOUNDS” (AdoRx Therapeutics Limited, priority 2020, published 2023)
Where two headings read alike, the source gives them in different places.

What was measured:
[1] = target: human Adenosine A3 receptor (Homo sapiens (Human), UniProt P0DMS8); assay: Adenosine receptor TR-FRET binding assay (A3); details: inhibition of binding of 100 nM CA200645, CHO cell membranes
Method in brief: (§1)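 Competition binding measured by TR-FRET between terbium-labelled receptors (CHO membranes, human) and fluorescent XAC, CA200645, used at 30 nM for A2b and 100 nM elsewhere. Room temperature, 2 h. Reported as Ki (Cheng–Prusoff).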

[2] = target: human Adenosine A1 receptor (Homo sapiens (Human), UniProt P30542); assay: Adenosine receptor TR-FRET binding assay (A1); details: inhibition of binding of 100 nM CA200645, CHO cell membranes
Chain of human Adenosine A1 receptor (P30542 whole entry): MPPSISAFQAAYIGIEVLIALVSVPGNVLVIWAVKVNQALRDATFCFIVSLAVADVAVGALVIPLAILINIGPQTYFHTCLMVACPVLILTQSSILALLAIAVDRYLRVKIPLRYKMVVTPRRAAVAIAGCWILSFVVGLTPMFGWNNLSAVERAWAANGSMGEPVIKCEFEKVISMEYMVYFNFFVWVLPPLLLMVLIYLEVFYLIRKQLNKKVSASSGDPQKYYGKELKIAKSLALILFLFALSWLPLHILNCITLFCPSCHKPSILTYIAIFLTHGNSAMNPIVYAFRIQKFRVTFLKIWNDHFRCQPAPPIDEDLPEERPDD
Method in brief: as §1

[3] = system: CD8+T cells in human whole blood; assay: Measurement of pCREB in CD8+T cells in human whole blood; assay type: cell-based; details: 3 μM NECA, rolipram
Procedure: Biological Example—Measurement of pCREB in CD8+T Cells in Human Whole Blood
Heparinised human whole blood was pre-incubated at 37° C. with serial dilutions of A2a antagonists for 20 min. and the phosphodiesterase inhibitor rolipram to amplify the pCREB response. The adenosine receptor agonist NECA is then added at a final concentration of 3 μM and following a 60 min incubation the blood is fixed and red blood cells lysed. White blood cells are isolated, permeabilized and stained with directly conjugated fluorescent antibodies to phospho-CREB (Alexa Fluor 488) and CD8 (Alexa Fluor 647) and the level of phospho-CREB in CD8+T cells is measured by FACS using a BD Accuri C6 Flow Cytometer.

human PBMCs = assay: CD3/CD28 stimulated IL-2 release NECA reversal assay in human PBMCs; assay type: cell-based; details: PBMC, 1 uM NECA, 24 hours, IL-2 in culture supernatant
Procedure: Biological Example—CD3/CD28 Stimulated IL-2 Release NECA Reversal Assay in Human PBMCs
Blood is drawn from healthy volunteers using sodium citrate as the anticoagulant (0.3% final concentration). After centrifugation of the blood over Histopaque-1077, PBMCs are collected from the Histopaque/plasma interface and washed twice in PBS (300 g for 10 mins at room temp). Cells are plated at 50,000 cells/well in 150 μl RPMI/10% FCS in 96-well cell culture plates that have been precoated with 1 ug/ml CD3 antibody. 50 μl diluted compound mix is added to the cells, to obtain final concentrations of 1 ug/ml CD28 antibody, 1 uM NECA and 0.003-10 μM adenosine receptor antagonist. Assay plates are incubated for 24 hours at 37° C. in a humidified incubator. Culture supernatant is tested for IL-2 levels using the human IL-2 Tissue Culture Kit (Meso Scale Discovery). Data for dose-response curves is calculated as % inhibition with 100% inhibition defined from no agonist control wells (+CD3/28-NECA)

[4] = target: human Adenosine A2a receptor (Homo sapiens (Human), UniProt P29274); assay: Adenosine receptor TR-FRET binding assay (A2a); details: inhibition of binding of 100 nM CA200645, CHO cell membranes
Chain of human Adenosine A2a receptor (P29274 whole entry): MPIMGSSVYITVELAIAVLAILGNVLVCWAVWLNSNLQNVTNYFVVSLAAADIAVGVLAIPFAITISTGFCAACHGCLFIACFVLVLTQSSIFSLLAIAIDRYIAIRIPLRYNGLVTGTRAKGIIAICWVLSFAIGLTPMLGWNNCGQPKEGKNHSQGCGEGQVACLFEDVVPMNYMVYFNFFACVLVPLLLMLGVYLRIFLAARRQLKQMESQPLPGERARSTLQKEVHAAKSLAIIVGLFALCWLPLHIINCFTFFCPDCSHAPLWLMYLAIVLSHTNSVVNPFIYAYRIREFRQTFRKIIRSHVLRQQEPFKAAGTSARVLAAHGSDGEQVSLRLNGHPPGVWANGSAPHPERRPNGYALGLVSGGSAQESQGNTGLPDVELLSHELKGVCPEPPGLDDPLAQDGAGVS
Method in brief: as §1

[5] = target: human Adenosine A2b receptor (Homo sapiens (Human), UniProt P29275); assay: Adenosine receptor TR-FRET binding assay (A2b)
Chain of human Adenosine A2b receptor (P29275 whole entry): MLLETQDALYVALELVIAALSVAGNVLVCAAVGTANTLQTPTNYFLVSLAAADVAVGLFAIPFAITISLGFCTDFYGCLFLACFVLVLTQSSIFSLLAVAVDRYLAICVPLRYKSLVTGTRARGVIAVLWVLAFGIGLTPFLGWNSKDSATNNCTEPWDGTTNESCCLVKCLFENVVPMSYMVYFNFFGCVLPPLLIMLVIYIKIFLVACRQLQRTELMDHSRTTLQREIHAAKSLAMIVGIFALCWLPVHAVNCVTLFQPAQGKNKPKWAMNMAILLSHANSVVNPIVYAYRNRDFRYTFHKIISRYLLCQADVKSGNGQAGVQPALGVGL
Method in brief: as §1

[6] = TR-FRET, inhibition of binding of 30 nM CA200645, CHO cell membranes

Chain of human Adenosine A3 receptor (P0DMS8 whole entry): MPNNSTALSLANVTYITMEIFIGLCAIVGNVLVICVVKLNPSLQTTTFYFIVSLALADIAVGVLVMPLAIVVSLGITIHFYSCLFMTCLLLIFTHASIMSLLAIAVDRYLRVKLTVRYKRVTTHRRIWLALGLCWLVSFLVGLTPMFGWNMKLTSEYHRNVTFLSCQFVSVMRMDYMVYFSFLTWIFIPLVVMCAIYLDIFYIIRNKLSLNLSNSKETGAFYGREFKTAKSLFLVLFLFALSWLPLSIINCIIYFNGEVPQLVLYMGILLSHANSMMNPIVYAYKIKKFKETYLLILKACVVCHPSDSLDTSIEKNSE

Cc1cc(-c2sc(NC(=O)N3CCC(C)(C#N)C3)nc2-c2cccc(C#N)c2)cc(C)n1 (racemic) [Example 27, 3-Cyano-N-[4-(3-cyanophenyl)-5-(2,6-dimethyl-4-pyridyl)thiazol-2-yl]-3-methyl-pyrrolidine-1-carboxamide]
Ki [1]: 225 nM | Ki [2]: 21 nM | IC50 [3]: 80 nM | IC50 (human PBMCs): 0.9 nM | Ki [4]: 0.41 nM | Ki [5, 6]: 0.8 nM

Cc1cc(-c2sc(NC(=O)N3CCC(C(C)(C)O)C3)nc2-c2cccc(C#N)c2)cc(Cl)n1 (stereo not shown) [Example 2, N-[5-(2-Chloro-6-methyl-4-pyridyl)-4-(3-cyanophenyl)thiazol-2-yl]-3-(1-hydroxy-1-methyl-ethyl)pyrrolidine-1-carboxamide]
Ki [1]: 849 nM | Ki [2]: 234 nM | IC50 [3]: 280 nM | IC50 (human PBMCs): 2 nM | Ki [4]: 0.4 nM | Ki [5, 6]: 1 nM

Cc1cc(-c2sc(NC(=O)N3CCNCC3)nc2-c2cccc(C#N)c2)cc(Cl)n1 [Example 3.1]
Ki [1]: 267 nM | Ki [2]: 94 nM | IC50 [3]: 1770 nM | IC50 (human PBMCs): 13 nM | Ki [4]: 3.11 nM | Ki [5, 6]: 6.6 nM

Cc1cc(-c2sc(NC(=O)N3CCC(C)(O)CC3)nc2-c2cccc(C#N)c2)cc(Cl)n1 [Example 3.7]
Ki [1]: 382 nM | Ki [2]: 14 nM | IC50 [3]: 290 nM | IC50 (human PBMCs): 3.3 nM | Ki [4]: 0.2 nM | Ki [5, 6]: 1.1 nM

Cc1cc(-c2sc(NC(=O)N3CCN[C@H](C(C)(C)O)C3)nc2-c2cccc(C#N)c2)cc(Cl)n1 [Example 3.9]
Ki [1]: 338 nM | Ki [2]: 81 nM | IC50 [3]: 470 nM | IC50 (human PBMCs): 17.9 nM | Ki [4]: 0.49 nM | Ki [5, 6]: 2.2 nM

Cc1cc(-c2sc(NC(=O)N3CCN(C4COC4)CC3)nc2-c2cccc(C#N)c2)cc(Cl)n1 [Example 3.11]
Ki [1]: 1300 nM | Ki [2]: 102 nM | IC50 [3]: 670 nM | IC50 (human PBMCs): 10.4 nM | Ki [4]: 0.52 nM | Ki [5, 6]: 1.2 nM

Cc1cc(-c2sc(NC(=O)N3CCS(=N)(=O)CC3)nc2-c2cccc(C#N)c2)cc(Cl)n1 [Example 3.12]
Ki [1]: 531 nM | Ki [2]: 18 nM | IC50 [3]: 600 nM | IC50 (human PBMCs): 8 nM | Ki [4]: 0.25 nM | Ki [5, 6]: 1 nM

Cc1cc(-c2sc(NC(=O)N3CCN(C)CC3)nc2-c2cccc(C#N)c2)cc(C)n1 [Example 4, N-[4-(3-Cyanophenyl)-5-(2,6-dimethyl-4-pyridyl)thiazol-2-yl]-4-methyl-piperazine-1-carboxamide]
Ki [1]: 1000 nM | Ki [2]: 60 nM | IC50 [3]: 130 nM | IC50 (human PBMCs): 3.8 nM | Ki [4]: 1.01 nM | Ki [5, 6]: 0.7 nM

Cc1cc(-c2sc(NC(=O)N3CCS(=N)(=O)CC3)nc2-c2cccc(C#N)c2)cc(C)n1 [Example 4.2, N-[4-(3-Cyanophenyl)-5-(2,6-dimethyl-4-pyridyl)thiazol-2-yl]-1-imino-1-oxo-1,4-thiazinane-4-carboxamide]
Ki [1]: 881 nM | Ki [2]: 28 nM | IC50 [3]: 90 nM | IC50 (human PBMCs): 7.9 nM | Ki [4]: 0.27 nM | Ki [5, 6]: 4.4 nM

Cc1cc(-c2sc(NC(=O)N3CCN(CCO)CC3)nc2-c2cccc(C#N)c2)cc(C)n1 [Example 4.3, N-[4-(3-Cyanophenyl)-5-(2,6-dimethyl-4-pyridyl)thiazol-2-yl]-4-(2-hydroxyethyl)piperazine-1-carboxamide]
Ki [1]: 603 nM | Ki [2]: 187 nM | IC50 [3]: 170 nM | IC50 (human PBMCs): 18.2 nM | Ki [4]: 0.7 nM | Ki [5, 6]: 3.8 nM

Cc1cc(-c2sc(NC(=O)N3CC[C@H](O)C3)nc2-c2cccc(C#N)c2)cc(C)n1 [Example 4.5, (3S)-N-[4-(3-Cyanophenyl)-5-(2,6-dimethyl-4-pyridyl)thiazol-2-yl]-3-hydroxy-pyrrolidine-1-carboxamide]
Ki [1]: 94 nM | Ki [2]: 16 nM | IC50 [3]: 160 nM | IC50 (human PBMCs): 8.5 nM | Ki [4]: 1.54 nM | Ki [5, 6]: 1.4 nM

Cc1cc(-c2sc(NC(=O)N3CCC(F)(C#N)CC3)nc2-c2cccc(C#N)c2)cc(C)n1 [Example 4.7, 4-Cyano-N-[4-(3-cyanophenyl)-5-(2,6-dimethyl-4-pyridyl)thiazol-2-yl]-4-fluoro-piperidine-1-carboxamide]
Ki [1]: 125 nM | Ki [2]: 6 nM | IC50 [3]: 90 nM | IC50 (human PBMCs): 0.8 nM | Ki [4]: 0.05 nM | Ki [5, 6]: 1.3 nM

Cc1cc(-c2sc(NC(=O)N3CC[C@@H](C#N)C3)nc2-c2cccc(C#N)c2)cc(C)n1 [Example 4.10, (3R)-3-Cyano-N-[4-(3-cyanophenyl)-5-(2,6-dimethyl-4-pyridyl)thiazol-2-yl]pyrrolidine-1-carboxamide]
Ki [1]: 157 nM | Ki [2]: 50 nM | IC50 [3]: 100 nM | IC50 (human PBMCs): 2.9 nM | Ki [4]: 0.38 nM | Ki [5, 6]: 2.5 nM

Cc1cc(-c2sc(NC(=O)N3CCN4CCOCC4C3)nc2-c2cccc(C#N)c2)cc(C)n1 (stereo not shown) [Example 4.11, N-[4-(3-Cyanophenyl)-5-(2,6-dimethyl-4-pyridyl)thiazol-2-yl]-3,4,6,7,9,9a-hexahydro-1H-pyrazino[2,1-c][1,4]oxazine-8-carboxamide]
Ki [1]: 482 nM | Ki [2]: 225 nM | IC50 [3]: 220 nM | IC50 (human PBMCs): 3.8 nM | Ki [4]: 1.3 nM | Ki [5, 6]: 4.7 nM

Cc1cc(-c2sc(NC(=O)N3CCNC(=O)C3)nc2-c2cccc(C#N)c2)cc(C)n1 [Example 4.13, N-[4-(3-Cyanophenyl)-5-(2,6-dimethyl-4-pyridyl)thiazol-2-yl]-3-oxo-piperazine-1-carboxamide]
Ki [1]: 195 nM | Ki [2]: 50 nM | IC50 [3]: 550 nM | IC50 (human PBMCs): 14.1 nM | Ki [4]: 1.5 nM | Ki [5, 6]: 1.7 nM

Cc1cc(-c2sc(NC(=O)N3CCN(C)C(=O)C3)nc2-c2cccc(C#N)c2)cc(C)n1 [Example 4.15, N-[4-(3-Cyanophenyl)-5-(2,6-dimethyl-4-pyridyl)thiazol-2-yl]-4-methyl-3-oxo-piperazine-1-carboxamide]
Ki [1]: 339 nM | Ki [2]: 91 nM | IC50 [3]: 650 nM | IC50 (human PBMCs): 10.3 nM | Ki [4]: 2.3 nM | Ki [5, 6]: 1.4 nM

CC(=O)N1CCN(C(=O)Nc2nc(-c3cccc(C#N)c3)c(-c3cc(C)nc(C)c3)s2)CC1 [Example 4.17, 4-Acetyl-N-[4-(3-cyanophenyl)-5-(2,6-dimethyl-4-pyridyl)thiazol-2-yl]piperazine-1-carboxamide]
Ki [1]: 293 nM | Ki [2]: 77 nM | IC50 [3]: 370 nM | IC50 (human PBMCs): 8.5 nM | Ki [4]: 1.9 nM | Ki [5, 6]: 2.8 nM

Cc1cc(-c2sc(NC(=O)N3CCN(S(C)(=O)=O)CC3)nc2-c2cccc(C#N)c2)cc(C)n1 [Example 4.18, N-[4-(3-cyanophenyl)-5-(2,6-dimethyl-4-pyridyl)thiazol-2-yl]-4-methylsulfonyl-piperazine-1-carboxamide]
Ki [1]: 414 nM | Ki [2]: 94 nM | IC50 [3]: 350 nM | IC50 (human PBMCs): 6.1 nM | Ki [4]: 0.6 nM | Ki [5, 6]: 2.3 nM

Cc1cc(-c2sc(NC(=O)N3CCN(S(N)(=O)=O)CC3)nc2-c2cccc(C#N)c2)cc(C)n1 [Example 4.19, N-[4-(3-cyanophenyl)-5-(2,6-dimethyl-4-pyridyl)thiazol-2-yl]-4-sulfamoyl-piperazine-1-carboxamide]
Ki [1]: 232 nM | Ki [2]: 46 nM | IC50 [3]: 5520 nM | IC50 (human PBMCs): 5.4 nM | Ki [4]: 0.6 nM | Ki [5]: 1.3 nM

Cc1cc(-c2sc(NC(=O)N3CC[C@H](S(C)(=O)=O)C3)nc2-c2cccc(C#N)c2)cc(C)n1 [Example 6.1, (3S)-N-[4-(3-Cyanophenyl)-5-(2,6-dimethyl-4-pyridyl)thiazol-2-yl]-3-methylsulfonyl-pyrrolidine-1-carboxamide]
Ki [1]: 228 nM | IC50 [3]: 150 nM | IC50 (human PBMCs): 3.6 nM | Ki [4]: 1.05 nM | Ki [5, 6]: 2.1 nM

Cc1cc(-c2sc(NC(=O)N3CC[C@@H](S(C)(=O)=O)C3)nc2-c2cccc(C#N)c2)cc(C)n1 [Example 6.9, (3R)-N-[4-(3-Cyanophenyl)-5-(2,6-dimethyl-4-pyridyl)thiazol-2-yl]-3-methylsulfonyl-pyrrolidine-1-carboxamide]
Ki [1]: 412 nM | IC50 [3]: 160 nM | IC50 (human PBMCs): 4.3 nM | Ki [4]: 0.88 nM | Ki [5]: 0.7 nM
